Test results as given in patent US9302991B2, “Arylamide derivatives as TTX-S blockers” (RaQualia Pharma Inc., priority 2010, dated 2016).

Molecular target: T1, human Nav1.7 channels (Homo sapiens, UniProt Q15858)
T1 construct: expressed in transfected cells; host or cells: CHO
Test: FRET assay, human Nav1.7 (EFS on FDSS)
Type: cell-based
Conditions: CHO cells expressing human Nav1.7, read-out: IC50 against Nav1.7
Procedure: The inhibitory activities of compounds against voltage gated sodium channels are determined by methodology well known in the art.
The ability of the aryl substituted carboxamide derivatives of the formula (I) to inhibit the NaV1.3, Nav1.7 and Nav1.5 channels is measured by Fluorescence Resonance Energy Transfer (FRET) assay and electrophysiology assay described below.
This screen is used to determine the effects of compounds on human Nav1.3, human Nav1.7, and human Nav1.5 channels, utilising electrical field stimulation (EFS) system in 96-well plate format on FDSS (Hamamatsu Photonics) platform. The change of membrane potential is monitored with FRET dye pair, oxonol (DiSBAC2(3)) and coumarin (CC2-DMPE).
CHO cells expressing human Nav1.7 channels are grown in T225 flasks, in a 5% CO2 humidified incubator to about 80% confluence. Media composition consists of HAM/F12 with Glutamax 1.10% FCS, 100 units/mL Penicillin and 100 microgram/mL Hygromycin.
Protocol: • Seed each cell lines (1×10^5 cells/well) into poly-D-lysine coated 96-well plates prior to experimentation. • Incubate at 37° C. in 5% CO2 for 24 hours. • Wash each well with assay buffer (140 mM NaCl, 4.5 mM KCl, 10 mM D-Glucose, 2 mM CaCl2, 1 mM MgCl2, 10 mM HEPES, pH 7.4 adjusted with NaOH) twice. • Add 1st loading solution containing 10 microM CC2-DMPE and 0.06% Pluronic F-127 in assay buffer. • Incubate the plate at room temperature in dark for 1 hour. • Remove 1st loading solution and added 2nd loading solution containing 15 microM DiSBAC2(3), 0.555 mM VABSC-1 and 0.004% Pluronic F-127 in assay buffer. • Place the plate under the dark at room temperature for 25 minutes. • Add compound solutions into the assay plate. • Set the assay plate in FDSS and placed an EFS device on the plate. • Measure EFS-induced fluorescent response by FDSS.
The data are analyzed and reported as normalized ratios of intensities measured at […]. The process of calculating these ratios is performed as follows:
This analysis is performed using a computerized specific program designed for FDSS generated data. Fluorescence ratio values are plotted using XLfit to determine an IC50 value for each compound.

T1 sequence (Q15858 whole entry): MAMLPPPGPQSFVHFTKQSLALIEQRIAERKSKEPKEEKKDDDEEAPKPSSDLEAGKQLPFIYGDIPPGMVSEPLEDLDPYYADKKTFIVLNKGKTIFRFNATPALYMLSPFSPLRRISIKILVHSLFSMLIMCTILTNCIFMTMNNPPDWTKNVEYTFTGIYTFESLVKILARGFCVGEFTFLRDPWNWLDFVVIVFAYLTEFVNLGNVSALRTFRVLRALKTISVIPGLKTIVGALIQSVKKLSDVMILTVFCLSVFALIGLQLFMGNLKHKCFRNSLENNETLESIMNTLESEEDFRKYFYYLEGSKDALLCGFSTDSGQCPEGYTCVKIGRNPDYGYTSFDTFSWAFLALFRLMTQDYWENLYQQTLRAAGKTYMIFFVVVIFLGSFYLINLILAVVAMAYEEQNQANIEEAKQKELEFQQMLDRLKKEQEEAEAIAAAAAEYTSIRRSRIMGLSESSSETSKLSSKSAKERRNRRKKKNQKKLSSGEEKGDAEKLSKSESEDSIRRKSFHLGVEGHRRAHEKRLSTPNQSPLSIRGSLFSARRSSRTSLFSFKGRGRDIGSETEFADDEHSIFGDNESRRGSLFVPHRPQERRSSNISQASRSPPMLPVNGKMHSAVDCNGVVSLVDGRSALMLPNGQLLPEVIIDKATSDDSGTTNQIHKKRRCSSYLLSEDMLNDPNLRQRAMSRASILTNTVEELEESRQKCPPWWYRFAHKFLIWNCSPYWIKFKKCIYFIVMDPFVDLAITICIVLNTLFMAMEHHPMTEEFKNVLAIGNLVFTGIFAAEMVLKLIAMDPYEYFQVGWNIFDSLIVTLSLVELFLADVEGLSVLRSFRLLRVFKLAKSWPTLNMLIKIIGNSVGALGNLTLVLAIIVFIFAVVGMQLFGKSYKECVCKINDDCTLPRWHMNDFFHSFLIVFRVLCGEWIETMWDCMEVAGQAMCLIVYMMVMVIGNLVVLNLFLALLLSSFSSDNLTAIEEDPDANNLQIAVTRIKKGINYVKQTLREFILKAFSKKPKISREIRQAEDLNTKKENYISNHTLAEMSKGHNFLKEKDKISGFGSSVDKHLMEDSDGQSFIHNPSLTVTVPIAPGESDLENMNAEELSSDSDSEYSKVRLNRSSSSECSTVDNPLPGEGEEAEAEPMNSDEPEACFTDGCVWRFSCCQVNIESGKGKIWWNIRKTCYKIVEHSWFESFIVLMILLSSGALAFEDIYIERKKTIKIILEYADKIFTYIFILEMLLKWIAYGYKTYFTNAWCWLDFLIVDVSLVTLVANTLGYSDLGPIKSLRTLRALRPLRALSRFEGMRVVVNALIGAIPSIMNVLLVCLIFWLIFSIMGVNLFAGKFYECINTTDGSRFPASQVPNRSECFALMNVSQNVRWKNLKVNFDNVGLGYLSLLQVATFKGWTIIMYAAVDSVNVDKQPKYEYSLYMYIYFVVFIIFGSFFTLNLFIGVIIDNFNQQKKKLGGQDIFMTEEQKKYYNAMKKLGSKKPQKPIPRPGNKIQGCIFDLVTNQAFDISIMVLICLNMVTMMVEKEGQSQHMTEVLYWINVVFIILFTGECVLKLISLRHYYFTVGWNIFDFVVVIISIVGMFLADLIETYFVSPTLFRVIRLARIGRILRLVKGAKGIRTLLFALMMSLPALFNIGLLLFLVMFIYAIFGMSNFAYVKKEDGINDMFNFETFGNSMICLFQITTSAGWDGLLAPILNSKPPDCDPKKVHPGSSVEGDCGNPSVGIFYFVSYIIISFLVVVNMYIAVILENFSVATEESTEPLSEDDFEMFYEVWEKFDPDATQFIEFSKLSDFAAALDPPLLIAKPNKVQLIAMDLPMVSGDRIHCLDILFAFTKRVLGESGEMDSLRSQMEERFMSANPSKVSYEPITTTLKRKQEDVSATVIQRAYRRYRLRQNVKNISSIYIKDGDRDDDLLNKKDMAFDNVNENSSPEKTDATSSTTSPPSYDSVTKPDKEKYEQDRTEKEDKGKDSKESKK

SMILES | IC50 [nM]
CC(NC(=O)c1ccnc(NC(=O)C2CC2)c1)c1ccc(OCC(F)(F)F)c(Cl)c1 (single isomer, unassigned) [Example 675, N-(1-(3-chloro-4-(2,2,2-trifluoroethoxy)phenyl)ethyl)-2-(cyclopropanecarboxamido)isonicotinamide] | < 1000
COc1cc(CNC(=O)c2cc(C)nc(NC(=O)C3CC3)n2)cnc1OCC(F)(F)F [Example 442, 2-(cyclopropanecarboxamido)-N-((5-methoxy-6-(2,2,2-trifluoroethoxy)pyridin-3-yl)methyl)-6-methylpyrimidine-4-carboxamide] | < 1000
COc1nc(OCC(F)F)ccc1C(C)NC(=O)c1ccnc(NC(=O)C(C)C)c1 (single isomer, unassigned) [Example 1163, N-(1-(6-(2,2-difluoroethoxy)-2-methoxypyridin-3-yl)ethyl)-2-isobutyramidoisonicotinamide] | < 1000
Cc1cc(C(=O)NC(C)c2cnc(OCC(F)(F)F)c(Cl)c2)nc(NC(=O)C(C)C)n1 (single isomer, unassigned) [Example 216, N-(1-(5-chloro-6-(2,2,2-trifluoroethoxy)pyridin-3-yl)ethyl)-2-isobutyramido-6-methylpyrimidine-4-carboxamide] | < 1000
Cc1cc(C(=O)NC(C)c2ccc(OCC(F)(F)F)c(Cl)c2)nc(NC(=O)C2CC2)n1 (single isomer, unassigned) [Example 679, N-(1-(3-chloro-4-(2,2,2-trifluoroethoxy)phenyl)ethyl)-2-(cyclopropanecarboxamido)-6-methylpyrimidine-4-carboxamide] | < 1000
CCC(=O)Nc1cc(C(=O)NC(C)c2ccc(OCC(F)(F)C(F)(F)F)nc2)ccn1 (single isomer, unassigned) [Example 1169, N-(1-(6-(2,2,3,3,3-pentafluoropropoxy)pyridin-3-yl)ethyl)-2-propionamidoisonicotinamide] | < 1000
CCc1cc(C(C)NC(=O)c2ccnc(NC(=O)C3CC3)n2)cnc1OCC(F)F (single isomer, unassigned) [Example 890, 2-(cyclopropanecarboxamido)-N-(1-(6-(2,2-difluoroethoxy)-5-ethylpyridin-3-yl)ethyl)pyrimidine-4-carboxamide] | < 1000
CCc1cc(CNC(=O)c2ccnc(NC(=O)C3CC3)n2)cnc1OCC(F)F [Example 912, 2-(cyclopropanecarboxamido)-N-((6-(2,2-difluoroethoxy)-5-ethylpyridin-3-yl)methyl)pyrimidine-4-carboxamide] | < 1000
CCC(=O)Nc1cc(C(=O)NCc2cccc(C(F)(F)F)c2F)ccn1 [Example 1012, N-(2-fluoro-3-(trifluoromethyl)benzyl)-2-propionamidoisonicotinamide] | < 1000
CC(C)C(=O)Nc1cc(C(=O)N[C@H](C)c2cccc(C(F)(F)F)c2)ccn1 (single isomer, unassigned) [Example 530] | < 1000
CC(NC(=O)c1ccnc(NC(=O)C2CC2)c1)c1ccc(OCC(F)(F)F)nc1 (single isomer, unassigned) [Example 9, 2-(cyclopropanecarboxamido)-N-(1-(6-(2,2,2-trifluoroethoxy)pyridin-3-yl)ethyl)isonicotinamide] | < 1000
CC(NC(=O)c1ccnc(NC(=O)C2CCC2)n1)c1cnc(OCC(F)(F)F)c(Cl)c1 (single isomer, unassigned) [Example 213, N-(1-(5-chloro-6-(2,2,2-trifluoroethoxy)pyridin-3-yl)ethyl)-2-(cyclobutanecarboxamido)pyrimidine-4-carboxamide] | < 1000
Cc1cc(C(=O)NC(C)c2ccc(OCC(F)F)c(C)c2)cc(NC(=O)C2CC2)n1 (single isomer, unassigned) [Example 866, 2-(cyclopropanecarboxamido)-N-(1-(4-(2,2-difluoroethoxy)-3-methylphenyl)ethyl)-6-methylisonicotinamide] | < 1000

The remaining lines, values ahead:

IC50 [nM] | SMILES
< 1000 | CC(=O)Nc1cc(C(=O)NC(C)c2cnc(OCC(F)(F)F)c(Cl)c2)ccn1 (single isomer, unassigned) [Example 52, 2-acetamido-N-(1-(5-chloro-6-(2,2,2-trifluoroethoxy)pyridin-3-yl)ethyl)isonicotinamide]
< 1000 | CC(=O)Nc1cc(C(=O)N[C@H](C)c2cccc(C(F)(F)F)c2)ccn1 (single isomer, unassigned) [Example 7]
< 1000 | COc1nc(OCC(F)F)ccc1C(C)NC(=O)c1cc(C)nc(NC(=O)C(C)C)c1 (single isomer, unassigned) [Example 1166, N-(1-(6-(2,2-difluoroethoxy)-2-methoxypyridin-3-yl)ethyl)-2-isobutyramido-6-methylisonicotinamide]
< 1000 | Cc1cc(C(=O)NCc2cnc(OCC(F)(F)F)c(C)c2)nc(NC(=O)C(C)C)n1 [Example 366, 2-isobutyramido-6-methyl-N-((5-methyl-6-(2,2,2-trifluoroethoxy)pyridin-3-yl)methyl)pyrimidine-4-carboxamide]
< 1000 | CC(=O)Nc1cc(C(=O)NCc2ccc(O[C@H](C)C(F)(F)F)nc2)cc(C)n1 (single isomer, unassigned) [Example 320]
< 1000 | CCC(=O)Nc1cc(C(=O)NCc2ccc(OCC(F)F)c(C)c2)ccn1 [Example 989, N-(4-(2,2-difluoroethoxy)-3-methylbenzyl)-2-propionamidoisonicotinamide]
< 1000 | CCC(=O)Nc1cc(C(=O)NCc2ccc(OCC(F)(F)F)nc2C)cc(C)n1 [Example 168, 2-methyl-N-((2-methyl-6-(2,2,2-trifluoroethoxy)pyridin-3-yl)methyl)-6-propionamidoisonicotinamide]
< 1000 | CCc1cc(CNC(=O)c2ccnc(NC(=O)C(C)C)c2)cnc1OCC(F)F [Example 910, N-((6-(2,2-difluoroethoxy)-5-ethylpyridin-3-yl)methyl)-2-isobutyramidoisonicotinamide]
< 1000 | O=C(NCc1ccc(OCC(F)(F)C(F)F)nc1)c1ccnc(NC(=O)C2CC2)c1 [Example 635, 2-(cyclopropanecarboxamido)-N-((6-(2,2,3,3-tetrafluoropropoxy)pyridin-3-yl)methyl)isonicotinamide]
< 1000 | Cc1cc(C(=O)NC(C)c2cccc(OCC(F)(F)F)c2)cc(NC(=O)C(C)C)n1 (single isomer, unassigned) [Example 881, 2-isobutyramido-6-methyl-N-(1-(3-(2,2,2-trifluoroethoxy)phenyl)ethyl)isonicotinamide]
< 1000 | CC(=O)Nc1cc(C(=O)NCc2cnc(OCC(F)F)c(C3CC3)c2)cc(C)n1 [Example 1082, 2-acetamido-N-((5-cyclopropyl-6-(2,2-difluoroethoxy)pyridin-3-yl)methyl)-6-methylisonicotinamide]
< 1000 | COc1cc(CNC(=O)c2cc(C)nc(NC(C)=O)c2)ccc1OCC(F)(F)F [Example 884, 2-acetamido-N-(3-methoxy-4-(2,2,2-trifluoroethoxy)benzyl)-6-methylisonicotinamide]
< 1000 | CC(=O)Nc1cc(C(=O)NCc2cnc(OCC(F)F)cc2C)cc(C)n1 [Example 778, 2-acetamido-N-((6-(2,2-difluoroethoxy)-4-methylpyridin-3-yl)methyl)-6-methylisonicotinamide]
< 1000 | COc1cc(C(C)NC(=O)c2cc(C)nc(NC(C)=O)c2)cnc1OCC(F)(F)F (single isomer, unassigned) [Example 330, 2-acetamido-N-(1-(5-methoxy-6-(2,2,2-trifluoroethoxy)pyridin-3-yl)ethyl)-6-methylisonicotinamide]
< 1000 | CC(=O)Nc1cc(C(=O)N[C@H](C)c2cccc(C(F)(F)F)c2)cc(C)n1 (single isomer, unassigned) [Example 529]
< 1000 | Cc1cc(C(=O)NCc2cnc(OCC(F)(F)F)c(Cl)c2)nc(NC(=O)C(C)C)n1 [Example 385, N-((5-chloro-6-(2,2,2-trifluoroethoxy)pyridin-3-yl)methyl)-2-isobutyramido-6-methylpyrimidine-4-carboxamide]
< 1000 | CC(=O)Nc1cc(C(=O)NC(C)c2cnc(OCC(F)F)c(C)c2)cc(C)n1 (single isomer, unassigned) [Example 556, 2-acetamido-N-(1-(6-(2,2-difluoroethoxy)-5-methylpyridin-3-yl)ethyl)-6-methylisonicotinamide]
< 1000 | CCOc1nc(OCC(F)(F)F)ccc1CNC(=O)c1ccnc(NC(=O)CC)c1 [Example 333, N-((2-ethoxy-6-(2,2,2-trifluoroethoxy)pyridin-3-yl)methyl)-2-propionamidoisonicotinamide]
